Assay results published in patent US8853258B2, “C-linked hydroxamic acid derivatives useful as antibacterial agents” (Pfizer Inc., priority 2009, dated 2014).
Values after ≈ are worked out from the molar mass of the structure shown. Like-named read-outs stand apart in the source and are kept apart here.

What was measured:
[1] = target: Pseudomonas aeruginosa LpxC enzyme (Pseudomonas aeruginosa (strain ATCC 15692 / DSM 22644 / CIP 104116 / JCM 14847 / LMG 12228 / 1C / PRS 101 / PAO1), UniProt P47205); test: IC50 Assay, LpxC Enzyme from P. aeruginosa (PA LpxC Enzyme IC50); format: biochemical
Procedure, shortened: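 Reaction run 1 h then stopped with 1N HCl. Conversion measured by RapidFire high-throughput mass spectrometry. IC50 derived from percent conversion relative to a no-enzyme control.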

[2] = test system: Acinetobacter baumanii/haemolyticus: Multidrug-resistant clinical isolate (AB-3167); test: MIC determination (CLSI), AB-3167; format: cell-based; conditions: for MIC: Acinetobacter baumannii
Procedure, shortened: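 Multidrug-resistant clinical isolate AB-3167 (A. baumannii/haemolyticus) tested for minimum inhibitory concentration following CLSI dilution susceptibility standards M7-A7 and M100-S18.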

[3] = test system: Escherichia coli EC-1: VOGEL, mouse virulent; test: MIC determination (CLSI), EC-1; format: cell-based; conditions: for MIC: Escherichia coli
Procedure, shortened: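 E. coli Vogel, a mouse-virulent strain (EC-1), was tested. MICs were set by dilution susceptibility testing per CLSI standards M7-A7/M100-S18.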

[4] = test system: Klebsiella pneumoniae: Ciprofloxacin-resistant isolate, ESBL, clinical isolate (KP-3700); test: MIC determination (CLSI), KP-3700; format: cell-based
Procedure, shortened: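 MIC measured by broth dilution according to CLSI M7-A7 and M100-S18 standards. Test organism was a ciprofloxacin-resistant, ESBL-expressing clinical isolate.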

[5] = test system: Pseudomonas aeruginosa UI-18: Wild-type (PA-7); test: MIC determination (CLSI), PA-7; format: cell-based; conditions: for MIC: Pseudomonas aeruginosa
Procedure, shortened: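 MIC by dilution method per CLSI M7-A7 and M100-S18 guidelines. Strain: wild-type Pseudomonas aeruginosa UI-18.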

[6] = Table 3, read-out: PA LpxC enzyeme IC^50
[7] = P. aeruginosa LpxC enzyme, read-out: PA LpxC enzyeme IC50
[8] = Acinetobacter baumanii/haemolyticus multidrug-resistant clinical isolate AB-3167
[9] = Escherichia coli EC-1 VOGEL, mouse virulent
[10] = Pseudomonas aeruginosa UI-18 wild-type PA-7
[11] = Table 1, MIC, read-out: AB-3167 (MIC)
[12] = Table 1, MIC, read-out: PA-7 (MIC)
[13] = Acinetobacter baumanii/haemolyticus AB-3167
[14] = Pseudomonas aeruginosa UI-18 (PA-7)

Row | SMILES | KP-3700 MIC [4] | IC50 [1, 7] | AB-3167 MIC [2, 8] | EC-1 MIC [3, 9] | PA-7 MIC [5, 10] | further results
1 | CC(CCc1ccc(OCc2cccc3cccnc23)cc1)(C(=O)NO)S(C)(=O)=O (stereo not drawn) [Example 296, N-hydroxy-2-methyl-2-(methylsulfonyl)-4-[4-(quinolin-8-ylmethoxy)phenyl]butanamide] | 16 mg/L | – | – | – | – | IC50 [1, 6]: 15.8 nM; MIC ([2]; Table 3, read-out: AB-3167 MIC): 32 µg/mL (≈ 74.7 µM); MIC ([3]; read-out: EC-1 MIC): 8 µg/mL (≈ 18.7 µM); MIC ([5]; Table 3, read-out: PA-7 MIC): ≥ 64 µg/mL
2 | CC(CCc1ccc(-c2ccc3ncccc3c2)c(F)c1)(C(=O)NO)S(C)(=O)=O (stereo not drawn) [Example 195] | 4 mg/L | 0.733 nM | 32 mg/L | 1 mg/L | 2 mg/L | –
3 | CC(CCc1ccc(OCc2nc(C3CCC3)no2)cc1)(C(=O)NO)S(C)(=O)=O (stereo not drawn) [Example 300, 4-{4-[(3-cyclobutyl-1,2,4-oxadiazol-5-yl)methoxy]phenyl}-N-hydroxy-2-methyl-2-(methylsulfonyl)butanamide] | 32 mg/L | – | – | – | – | IC50 [1, 6]: 7.56 nM; MIC ([2]; Table 3, read-out: AB-3167 MIC): ≥ 64 µg/mL; MIC ([3]; read-out: EC-1 MIC): 16 µg/mL (≈ 37.8 µM); MIC ([5]; Table 3, read-out: PA-7 MIC): 32 µg/mL (≈ 75.6 µM)
4 | CC(=O)c1cc(-c2ccc(CCC(C)(C(=O)NO)S(C)(=O)=O)cc2)ccc1O (stereo not drawn) [Example 180] | 16 mg/L | 0.826 nM | 16 mg/L | 4 mg/L | 8 mg/L | –
5 | CC(CCc1ccc(-c2ccc(-c3cc(CO)no3)cc2)cc1)(C(=O)NO)S(C)(=O)=O (stereo not drawn) [Example 9, N-Hydroxy-4-{4′-[3-(hydroxymethyl)isoxazol-5-yl]biphenyl-4-yl}-2-methyl-2-(methylsulfonyl)butanamide] | 4 mg/L | – | – | – | – | IC50 ([1]; Table 1, read-out: PA LpxC enzyeme IC50): 0.32 nM; MIC [2, 11]: 32 µg/mL (≈ 72 µM); MIC ([3]; read-out: EC-1: (MIC)): 0.125 µg/mL (≈ 0.281 µM); MIC [5, 12]: 2 µg/mL (≈ 4.5 µM)
6 | CC(CCc1ccc(C2=CCCCC2)cc1)(C(=O)NO)S(C)(=O)=O (stereo not drawn) [Example 224] | 16 mg/L | 0.441 nM | – | – | – | AB-3167 MIC [2, 13]: 4 mg/L; EC-1 MIC ([3]; Escherichia coli EC-1): 4 mg/L; PA-7 MIC [5, 14]: 2 mg/L
7 | CC(CCc1ccc(OCc2ccc(S(C)(=O)=O)cc2)cc1)(C(=O)NO)S(C)(=O)=O (stereo not drawn) [Example 309, N-hydroxy-2-methyl-2-(methylsulfonyl)-4-(4-{[4-(methylsulfonyl)benzyl]oxy}phenyl)butanamide] | 16 mg/L | – | – | – | – | IC50 [1, 6]: 1.21 nM; MIC ([2]; Table 3, read-out: AB-3167 MIC): ≥ 64 µg/mL; MIC ([3]; read-out: EC-1 MIC): 8 µg/mL (≈ 17.6 µM); MIC ([5]; Table 3, read-out: PA-7 MIC): 8 µg/mL (≈ 17.6 µM)
8 | Cc1cc(C#N)ccc1-c1ccc(CCC(C)(C(=O)NO)S(C)(=O)=O)cc1 (stereo not drawn) [Example 91] | 8 mg/L | 0.266 nM | 16 mg/L | 2 mg/L | 2 mg/L | –
9 | CC(CCc1ccc(-c2ccc3[nH]ccc3c2)cc1)(C(=O)NO)S(C)(=O)=O (stereo not drawn) [Example 57] | 8 mg/L | 0.295 nM | 8 mg/L | 0.5 mg/L | 0.5 mg/L | –
10 | C[C@@](CCc1ccc(-c2ccc(C#N)cn2)cc1)(C(=O)NO)S(C)(=O)=O [Example 202] | 16 mg/L | 0.808 nM | – | – | – | AB-3167 MIC [2, 13]: ≧64 mg/L; EC-1 MIC ([3]; Escherichia coli EC-1): 8 mg/L; PA-7 MIC [5, 14]: 1 mg/L
11 | CSc1cccc(-c2ccc(CCC(C)(C(=O)NO)S(C)(=O)=O)cc2)c1 (stereo not drawn) [Example 56] | 4 mg/L | 0.417 nM | 8 mg/L | 2 mg/L | 2 mg/L | –
12 | Cc1oc(-c2ccccc2F)nc1COc1ccc(CCC(C)(C(=O)NO)S(C)(=O)=O)cc1 (stereo not drawn) [Example 251, 4-(4-{[2-(2-fluorophenyl)-5-methyl-1,3-oxazol-4-yl]methoxy}phenyl)-N-hydroxy-2-methyl-2-(methylsulfonyl)butanamide] | ≧64 mg/L | – | – | – | – | IC50 [1, 6]: 21.6 nM; MIC ([2]; Table 3, read-out: AB-3167 MIC): ≥ 64 µg/mL; MIC ([3]; read-out: EC-1 MIC): 32 µg/mL (≈ 67.2 µM); MIC ([5]; Table 3, read-out: PA-7 MIC): ≥ 64 µg/mL
13 | CC(=O)Nc1ccc(-c2ccc(CC[C@](C)(C(=O)NO)S(C)(=O)=O)cc2)cc1 [Example 205] | 32 mg/L | 1.74 nM | – | – | – | AB-3167 MIC [2, 13]: ≧64 mg/L; EC-1 MIC ([3]; Escherichia coli EC-1): 16 mg/L; PA-7 MIC [5, 14]: 4 mg/L
14 | CC(CCc1ccc(OCc2ccccc2)cc1)(C(=O)NO)S(C)(=O)=O (stereo not drawn) [Example 132] | 16 mg/L | 0.386 nM | 16 mg/L | 2 mg/L | 2 mg/L | –
15 | C[C@@](CCc1ccc(-c2ccc(N)nc2)cc1)(C(=O)NO)S(C)(=O)=O [Example 204] | ≧64 mg/L | 18.2 nM | – | – | – | AB-3167 MIC [2, 13]: ≧64 mg/L; EC-1 MIC ([3]; Escherichia coli EC-1): ≧64 mg/L; PA-7 MIC [5, 14]: 8 mg/L
16 | CC(CCc1ccc(C2=CCOCC2)cc1)(C(=O)NO)S(C)(=O)=O (stereo not drawn) [Example 225] | ≧64 mg/L | 1.88 nM | – | – | – | AB-3167 MIC [2, 13]: ≧64 mg/L; EC-1 MIC ([3]; Escherichia coli EC-1): 32 mg/L; PA-7 MIC [5, 14]: 4 mg/L
17 | COc1cc(COc2ccc(CCC(C)(C(=O)NO)S(C)(=O)=O)cc2)cc(OC)c1 (stereo not drawn) [Example 244, 4-{4-[(3,5-dimethoxybenzyl)oxy]phenyl}-N-hydroxy-2-methyl-2-(methylsulfonyl)butanamide] | 16 mg/L | – | – | – | – | IC50 [1, 6]: 5 nM; MIC ([2]; Table 3, read-out: AB-3167 MIC): ≥ 64 µg/mL; MIC ([3]; read-out: EC-1 MIC): 4 µg/mL (≈ 9.14 µM); MIC ([5]; Table 3, read-out: PA-7 MIC): ≥ 64 µg/mL
18 | CC(CCc1ccc(-c2ccc(F)cc2)cc1O)(C(=O)NO)S(C)(=O)=O (racemic) [Example 19, (+/−)-4-(4′-Fluoro-3-hydroxybiphenyl-4-yl)-N-hydroxy-2-methyl-2-(methylsulfonyl)butanamide] | 32 mg/L | – | – | – | – | IC50 ([1]; PA LpxC enzyeme IC50, Table 1): 3.43 nM; MIC [2, 11]: ≥ 64 µg/mL; MIC ([3]; read-out: EC-1: (MIC)): 8 µg/mL (≈ 21 µM); MIC [5, 12]: 16 µg/mL (≈ 41.9 µM)
19 | CC(CCc1ccc(-c2ccc(C(=O)CO)cc2)cc1)(C(=O)NO)S(C)(=O)=O (stereo not drawn) [Example 169] | 4 mg/L | 0.2 nM | 32 mg/L | 2 mg/L | 1 mg/L | –
20 | COc1ccc(-c2ccc(CCC(C)(C(=O)NO)S(C)(=O)=O)cn2)c(F)c1 (stereo not drawn) [Example 219] | 16 mg/L | 1.21 nM | – | – | – | AB-3167 MIC [2, 13]: ≧64 mg/L; EC-1 MIC ([3]; Escherichia coli EC-1): 4 mg/L; PA-7 MIC [5, 14]: 8 mg/L
21 | CC(CCc1ccc(-c2cccc(C#N)c2)cc1)(C(=O)NO)S(C)(=O)=O (stereo not drawn) [Example 64] | 8 mg/L | 0.739 nM | ≧64 mg/L | 4 mg/L | 2 mg/L | –
22 | CC(CCc1ccc(COc2ccc(F)cc2)cc1)(C(=O)NO)S(C)(=O)=O (stereo not drawn) [Example 228] | 16 mg/L | 3.28 nM | – | – | – | AB-3167 MIC [2, 13]: 16 mg/L; EC-1 MIC ([3]; Escherichia coli EC-1): 8 mg/L; PA-7 MIC [5, 14]: 8 mg/L
23 | CCc1ccccc1COc1ccc(CCC(C)(C(=O)NO)S(C)(=O)=O)cc1 (stereo not drawn) [Example 306, 4-{4-[(2-ethylbenzyl)oxy]phenyl}-N-hydroxy-2-methyl-2-(methylsulfonyl)butanamide] | 32 mg/L | – | – | – | – | IC50 [1, 6]: 0.813 nM; MIC ([2]; Table 3, read-out: AB-3167 MIC): 16 µg/mL (≈ 39.5 µM); MIC ([3]; read-out: EC-1 MIC): 8 µg/mL (≈ 19.7 µM); MIC ([5]; Table 3, read-out: PA-7 MIC): 16 µg/mL (≈ 39.5 µM)
24 | C[C@](CCc1ccc(-c2ccc3c(c2)OCCO3)cc1)(C(=O)NO)S(C)(=O)=O [Example 175] | ≧64 mg/L | 14.6 nM | ≧64 mg/L | 32 mg/L | ≧64 mg/L | –
